From article PMC9837035 (Nature Communications, 2023) come the findings set out here.

Assay [1] addresses T1, MLL3 (Homo sapiens, UniProt Q8NEZ4).
T1 construct: purchased Reaction Biology
The experiment in a line: Radioisotope-based methyltransferase assay (selectivity). Format: biochemical.

Assay [2] addresses DNMT3b (Homo sapiens, UniProt Q9UBC3). Described as above. The following applies: 1 μM SAM.
Assay [3] deals with PRMT6 (Homo sapiens, UniProt Q96LA8). The description is as above.
The subject of assay [4] is β- and γ-globin genes in HUDEP-2 cells. The experiment in a line: RT-qPCR of β- and γ-globin in HUDEP-2 cells. Format: cell-based, human. The gist of the method:
(§1)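 Total RNA reverse-transcribed to cDNA, then target transcripts quantified by SYBR Green real-time qPCR. Expression normalized to GAPDH as reference gene.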

The test system of assay [5] is β- and γ-globin mRNAs in CD34+-derived cells. The experiment in a line: RT-qPCR of β- and γ-globin in CD34+-derived cells. Format: cell-based, human. Here is the method: HUDEP-2 cells and HiDEP-1 cells were grown in Stemline II Hematopoietic Stem Cell Expansion Medium (Sigma) supplemented with 50 ng/mL recombinant stem cell factor (SCF; R&D systems), 3 IU/mL recombinant erythropoietin (EPO; Kyowa Kirin), 1 μM dexamethasone (Dex; Sigma), and 1 μg/mL doxycycline (Sigma). A total of 1 × 10^5 human CD34^+ progenitor cells derived from bone marrow or peripheral blood (Lonza) were cultured on 35-mm dishes (BD Falcon) in StemSpan SFEMII medium with 50 ng/mL SCF, 5 IU/mL EPO, and 10 ng /mL interleukin 3 (IL-3; R&D systems). The medium was changed on day 4 to SCF, EPO, and 1 μM Dex, and the cells were transferred to 60-mm dishes (BD Falcon). Seven days after the onset of differentiation, cells were counted and 1 × 10^6 cells were re-plated on 100-mm dishes (BD Falcon) with SCF, EPO, and Dex. The rat myoblast cell line H9c2, HEK293T, and PLAT-E cells were maintained in Dulbecco’s modified Eagle’s medium (Thermo Fisher Scientific) supplemented with 10% heat-inactivated fetal bovine serum (FBS) and penicillin/streptomycin. All cells were cultured at 37 °C under 5% CO2.
Total cellular RNA was prepared using the Tissue Total RNA Mini Kit (FAVORGEN), and cDNA was synthesized using ReverTra Ace Master Mix (TOYOBO). Expression of target genes was analyzed using THUNDERBIRD SYBR qPCR Mix (TOYOBO) on a CFX Connect Real Time System (Bio-Rad). The qPCR data were acquired on CFX Maestro (Bio-Rad). Primers are listed in Supplementary Table 10. GAPDH was used as a reference. Primers were purchased from INTEGRATED DNA TECHNOLOGIES or FASMAC.

The subject of assay [6] is BGLT3 RNA in HUDEP-2 cells. The experiment in a line: RT-qPCR of BGLT3 in HUDEP-2 cells. Format: cell-based, human. The gist of the method:
as §1

In assay [7] the target is T2, G9a SET domain (Homo sapiens, UniProt Q96KQ7).
T2 construct: the human G9a SET domain (residues 913–1193) was synthesized using the E. coli cell-free synthesis method; made in house; host or cells: E. coli cell-free synthesis
T2 sequence (Q96KQ7 913-1193): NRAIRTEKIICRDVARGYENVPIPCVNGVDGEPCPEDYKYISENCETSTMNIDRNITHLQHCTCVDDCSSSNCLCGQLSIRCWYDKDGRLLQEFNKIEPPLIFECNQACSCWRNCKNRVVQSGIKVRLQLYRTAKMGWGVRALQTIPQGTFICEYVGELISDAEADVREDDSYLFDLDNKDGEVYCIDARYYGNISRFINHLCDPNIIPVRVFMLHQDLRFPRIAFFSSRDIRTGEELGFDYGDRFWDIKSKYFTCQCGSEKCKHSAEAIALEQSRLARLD
The experiment in a line: Surface plasmon resonance (SPR). Format: binding. Here is the method:
For crystal structure analysis, the human G9a SET domain (residues 913–1193) was synthesized using the E. coli cell-free synthesis method[48],[49] and purified in the same manner as described previously, except that the final size-exclusion column chromatography using HiLoad Superdex 200 16/60 (GE Healthcare) was equilibrated with 20 mM Tris-HCl buffer (pH 8.0) containing 400 mM NaCl. […] Crystals were grown by the hanging drop method at 293 K, where the sample solution was mixed with an equal volume of a reservoir solution containing 100 mM Bis-Tris propane (pH 7.4), 200 mM sodium formate, 10% ethylene glycol, and 25% PEG 3350. The harvested crystals were coated with Paratone-N oil (Hampton Research) before being flash-cooled in liquid nitrogen. Diffraction data were collected at the X06DA beamline of the Swiss Light Source, Paul Scherrer Institut (Villigen, Switzerland), and were processed and scaled with XDS[51], AIMLESS[52], and other CCP4 programs. The structure of G9a with UNC0638 (PDB ID: 3RJW)[23] was used for the initial phase determination by the molecular replacement method with Phaser[53]. The topology and parameter file for the inhibitor was generated with eLBOW[54] from SMILES strings. Structure refinement was carried out with Phenix[55] and manual model building using COOT[56]. Crystallographic statistics are summarized in Supplementary Table 3.
SPR was performed using a Biacore T200 (Cytiva) and Series S Sensorchip SA (Cytiva, BR100531) at the temperature of 25 °C. A solution of PBS, 0.005% TWEEN20 (Sigma, P9416), 0.5 mM TCEP (Nacalai Tesque, 06342-21), and 2% DMSO (Sigma, 276855) was filtered with a 0.22-μm filter and used as the running buffer. Kinetic measurements were carried out at a flow rate of 30 μL/min, and the association and dissociation phases were monitored for 120 s and 120–300 s, respectively. The G9a SET domain was biotinylated by using NHS-PEG4-Biotin (Thermo, 39259), and captured to flow cells 2, 3, and 4 with immobilization levels of ~2300 RU. No specific treatment was applied to the reference surface (flow cell 1). To prevent oxidation of the immobilized protein, a solution containing 1 μM ZnCl2 and 5 mM TCEP was injected at a flow rate of 10 μL/min for 60 s before each set of kinetic measurements. The extra wash command was executed after each measurement cycle with 50% DMSO aqueous solution. To correct for bulk responses, solvent correction was performed once after all kinetics runs by using running buffer containing 1–3% DMSO. The sensorgrams obtained from the three flow cells were analyzed individually by Biacore T200 Evaluation Software (Cytiva). The dissociation constant (KD) and binding kinetic parameters were calculated by a curve fit to a built-in 1:1 binding model.

[8] abbreviates: Parental cells, relative to Parental DMSO = 1, replicate values.
Where [9] appears, read: CD34+-derived cells, day 10, 10 μM.
Where [10] appears, read: single run, read-out: Dissociation constant (Kd).
Setting [11] is: single agents or combination, relative to DMSO = 1, replicate values.

Molecules are shown by their SMILES. Where “and” joins values, the source holds several entries; their conditions need not be identical. Equal entries are not always repeated. Where two headings read alike, the source gives them in different places.

PRMT6, sequence (Q96LA8 whole entry): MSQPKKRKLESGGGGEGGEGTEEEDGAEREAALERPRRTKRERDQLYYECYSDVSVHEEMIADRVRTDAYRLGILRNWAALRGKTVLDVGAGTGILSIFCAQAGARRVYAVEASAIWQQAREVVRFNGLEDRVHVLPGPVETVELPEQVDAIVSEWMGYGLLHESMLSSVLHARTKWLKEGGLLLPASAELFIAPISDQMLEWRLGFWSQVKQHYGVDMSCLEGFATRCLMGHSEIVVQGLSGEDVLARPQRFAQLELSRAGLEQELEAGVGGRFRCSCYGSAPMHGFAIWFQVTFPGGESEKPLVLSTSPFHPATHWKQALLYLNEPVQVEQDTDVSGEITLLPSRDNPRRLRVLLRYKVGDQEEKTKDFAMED

Take `Nc1ncnc2c1ncn2[C@@H]1O[C@H](CSCC[C@H](N)C(=O)O)[C@@H](O)[C@H]1O` [SAH, S-(5'-Adenosyl)-L-homocysteine, reference compound]: the IC50 came out at 49700 nM in assay [1] (MLL3, 1 μM SAM); 49700 nM in assay [1] (MLL3, RK-701 in duplicate); 110 nM in assay [2]; 410 nM in assay [3] (IC50, PRMT6, 1 μM SAM).

As for `NC(=O)NO` [Hydroxyurea, hydroxyurea], the “β-globin in hydroxyurea-treated HUDEP-2 cells” value in assay [4] (setting [8]) is 1.499 and 1.443 and 1.4392. Moreover, the “γ-globin in hydroxyurea-treated HUDEP-2 cells” value in assay [4] (setting [8]) was 3.312 and 3.051 and 3.256. Also, in assay [5] (setting [9]), the “Relative expression of β-globin mRNA” value was 1.124 and 0.7862 and 0.5724. For the same compound, in assay [5] (setting [9]), the “Relative expression of γ-globin mRNA” value is 2.644 and 2.524 and 1.672. The “BGLT3 expression in HUDEP-2 cells treated with hydroxyurea” value was 1.625 and 1.206 and 1.616 in assay [6] (50 μM, relative to DMSO = 1, replicate values); 1.87 and 1.919 and 2.091 in assay [6] (100 μM, relative to DMSO = 1, replicate values); 2.757 and 2.815 and 4.093 in assay [6] (200 μM, relative to DMSO = 1, replicate values). Further, the BGLT3 expression entry in assay [6] (HUDEP-2) was “promoted BGLT3 expression”; in assay [6] (Left panel, Parental HUDEP-2 cells treated with hydroxyurea, Parental DMSO = 1, 3 replicates) it was 2.685 and 2.462 and 3.265; in assay [6] (Right panel, Parental HUDEP-2 cells treated with hydroxyurea, DMSO of the same cells = 1, 3 replicates) it was 2.685 and 2.462 and 3.265.

Regarding `Cc1c(C(=O)N[C@H](CCC2CC2)C(=O)Nc2ccc(C#N)cc2)[nH]c2c1C(=O)CC(C)(C)C2` [RK-0133114], the “binding to G9a by SPR” value in assay [7] was “failed to detect the binding”. Besides, the Kd in assay [7] (mean of three kinetics runs, read-out: KD) was greater than 20000 nM; in assay [7] (setting [10]), greater than 20000 nM.

For `Cc1c(C(=O)NC(CCC2CC2)C(=O)Nc2ccc(C#N)cc2)[nH]c2c1C(=O)CC(C)(C)C2` (centres unmarked) [RK-701], in assay [7], the “binding to G9a by SPR” value is listed as “reversible binding”. Further, the Kd was 750 nM in assay [7] (absence of SAM, read-out: Kd); 2400 nM in assay [7] (earlier SPR conditions, peer review file, read-out: Kd before re-analysis); 743 nM and 731 nM and 761 nM in assay [7] (setting [10]). The IC50 in assay [1] (MLL3, 1 μM SAM) is greater than 100000 nM; in assay [1] (MLL3, RK-701 in duplicate), greater than 100000 nM; in assay [2], greater than 100000 nM; in assay [3], greater than 100000 nM. Also, in assay [4] (HUDEP-2), the “γ-globin mRNA level” value was “upregulated”. Besides, the “β-globin expression in HUDEP-2 cells treated with RK-701 and decitabine” value in assay [4] (setting [11]) was 1.116 and 1.192 and 1.151. Also, the “γ-globin expression in HUDEP-2 cells treated with RK-701 and decitabine” value in assay [4] (setting [11]) is 2.225 and 1.925 and 1.787. The “γ-globin mRNA expression” value in assay [5] (primary human CD34+ hematopoietic cells) is “significantly increased”. The BGLT3 expression entry in assay [6] (HUDEP-2) was “induced BGLT3 expression”; in assay [6] (parental HUDEP-2 cells treated with RK-701, parental DMSO = 1, replicates 1a-3b), 3.454 and 1.802 and 1.321 and 3.995 and 3.605 and 4.281. The “BGLT3 expression in HUDEP-2 cells treated with RK-701 and decitabine” value in assay [6] (setting [11]) is 2.098 and 1.983 and 1.578.
